Source: US20100292200A1, “Methods for Modulating Apoptosis in Platelets” (The Walter and Eliza Hall Institute of Medical Research, priority 2006, published 2010)
“Also recorded” adds a separate entry of the source.

Key:
[1] = test system: Bcl-2, Bcl-xL, Bcl-w, Mcl-1, A1; conditions: Oltersdorf et al., 2005; van Delft et al., 2006; cited from earlier work
mouse platelets = test: Ex vivo platelet assays, mouse platelets in culture (platelet counts, caspase immunoblotting); type: cell-based; conditions: ABT-737 1 μM
Description: (A) Expression of Bcl-2 family proteins in platelets. […] (C) ABT-737 triggers caspase activation in platelets. […] (F) Absence of Bak protects platelets against ABT-737.
Cell death was induced with ABT-737 (up to 5 μM, Abbott Laboratories (Oltersdorf et al., 2005 (supra)), etoposide (up to 100 μM, Pharmacia) or staurosporine (10 μM, Sigma); 50 μM qVD.OPh (Enzyme Systems) was also added in some experiments. Cell viability was determined by flow cytometry for cells that exclude propidium iodide or manual counting using a hemacytometer.
Other antibodies for immunoblotting were mouse monoclonal anti-Bcl-xL (2H12; BD), anti-Bcl-2 (clone 7; BD), anti-human Bcl-2 (Bcl-2-100), anti-actin (AC40; Sigma), anti-Bax (2D2 and 5B7; Sigma), anti-Mcl-1 (clone 22: BD); rat monoclonal anti-Mcl-1 (14C11; D Huang, unpublished), rabbit polyclonal anti-Bak (B5897: Sigma), anti-Mcl-1 (Rockland), anti-caspase-3 (585; gift of Y. Lazebnik), anti-cleaved p17 fragment of caspase-3 (AB3623; Chemicon), anti-gelsolin (gift of D Kwiatkowski) (Kothakota et al., Science, 278:294-298, 1997); hamster monoclonal anti-mouse Bcl-2 (3F11; BD). Secondary antibodies included HRP-conjugated anti-rat or anti-hamster IgG (SouthernBiotech), anti-mouse or anti-rabbit IgG (Chemicon), and anti-mouse IgG Fcγ chain specific antibody (Jackson ImmunoResearch). The proteins were detected using Enhanced ChemiLuminescence (ECL; GE Healthcare).
Platelets were counted manually in triplicate using a hemacytometer.

Mcl-1 null MEF cells = test: Assay of Mcl-1 null MEF cells (rescue from ABT-737-induced killing, CellTitre-Blue viability); type: cell-based, mouse; conditions: Mcl-1^(-/-) MEFs
Description: In summary, cells are split on day one in order to have them at a confluency of 60-80% on day two. On day two, the cells are seeded out into assay plates at a density that will ensure they are not confluent by day four of the assay. The assay plates are incubated at room temperature for 20-60 minutes before being transferred to 37° C. so that edge effects are minimized. For the same reason, assay plates are never stacked on top of each other in the incubator. On day three the cells are treated first with either Q-VD or with WEHI library compound. The cells are incubated for a 2 hour period in the presence of the library compounds and are then treated with ABT-737. […] After four hours the level of resorufin is measured.
The protocol for day one was repeated up to the point where the cells were pelleted and the supernatant aspirated off. […] The cells were vortexed and then counted using a haemocytometer. The dilution necessary to achieve a density of 2×10^4 cells ml^−1 (1000 cells per well per 50 μl media) in the required volume was calculated and the dilution performed in 1% FCS FMA. […]
CellTitre-Blue™ was warmed to 37° C. and 10 μl was then added to each well of the assay plates using the Multidrop. The plates were returned to 37° C. for 4 hours before being loaded into the EnVision plate reader. […]

SMILES: CN(C)CC[C@H](CSc1ccccc1)Nc1ccc(S(=O)(=O)NC(=O)c2ccc(N3CCN(Cc4ccccc4-c4ccc(Cl)cc4)CC3)cc2)cc1[N+](=O)[O-] [ABT-737]
- selectivity among pro-survival Bcl-2 family proteins [1]: selectively targets Bcl-2, Bcl-xL and Bcl-w but not the other pro-survival proteins Mcl-1 or A1
- loss of wild type platelets in culture (mouse platelets; counted after 1 h): Bak-mediated caspase-dependent loss of platelets
- caspase-3 activation and gelsolin cleavage in cultured platelets (mouse platelets; immunoblotting): triggered cleavage and full activation of caspase-3 as well as cleavage of gelsolin; also recorded: induced complete caspase-3 activation and gelsolin cleavage
- action of ABT-737 on viability of Bak^-/- platelets in culture (mouse platelets; Bak^-/- vs wild type platelets, 1 h): markedly blunted
- induction of apoptosis in Mcl-1^(-/-) cells (Mcl-1 null MEF cells): Apoptosis is induced
